Assay results: patent US8415469B2, “Compounds and methods for kinase modulation, and indications therefor” (Plexxikon Inc., priority 2005, dated 2013)

Experiments:
Type in all cases: biochemical
Kdr = target: T1, Kdr (Homo sapiens, UniProt P35968); experiment: Z'-Lyte FRET kinase assay (Invitrogen), Kdr; conditions: read-out: IC50, activity toward kinase Kdr
T1 construct: purchased Invitrogen (assay run by Invitrogen)

B-Raf V600E = target: T2, B-Raf V600E (Homo sapiens, UniProt P15056, V600E); experiment: AlphaScreen kinase assay, B-Raf V600E; conditions: read-out: IC50, activity toward kinase B-Raf V600E
T2 construct: P4254. pFastBacBD-CDC37 BRAF D437-K722-X, V600E; His6 with pFastBac HT leader (TEV site) (N); made in house; host or cells: Sf9 (baculovirus; chaperone CDC37 co-expressed)

FGFR1 = target: T3, FGFR1 (Homo sapiens, UniProt P11362, C488A/C584S); experiment: AlphaScreen kinase assay, FGFR1; conditions: read-out: IC50, activity toward kinase FGFR
T3 construct: P1351.pET N6 BI-PTP FGFR A458-E765-X C488A, C584S; made in house; host or cells: E. coli (PTP1B co-expressed)

Kit = target: T4, Kit (Homo sapiens, UniProt P10721); experiment: AlphaScreen kinase assay, Kit; conditions: read-out: IC50, activity toward kinase Kit
T4 construct: P1332.N6 BI PTP KIT M552-K948-X COD; His6 (N); made in house; host or cells: E. coli (PTP1B co-expressed)

B-Raf = target: T5, B-Raf (Homo sapiens, UniProt P15056); experiment: AlphaScreen kinase assay, B-Raf; conditions: read-out: IC50, activity toward kinase B-Raf
T5 construct: purchased Upstate Biotechnology

Flt1 = target: T6, Flt1 (Homo sapiens, UniProt P17948); experiment: AlphaScreen kinase assay, Flt1; conditions: read-out: IC50, activity toward kinase Flt1
T6 construct: P1826.pETN6 BI-PTP FLT1 M799-D1165-X WT; His6 (N); made in house; host or cells: E. coli (PTP1B co-expressed)
T6 sequence (P17948 with tags, fused parts or gaps): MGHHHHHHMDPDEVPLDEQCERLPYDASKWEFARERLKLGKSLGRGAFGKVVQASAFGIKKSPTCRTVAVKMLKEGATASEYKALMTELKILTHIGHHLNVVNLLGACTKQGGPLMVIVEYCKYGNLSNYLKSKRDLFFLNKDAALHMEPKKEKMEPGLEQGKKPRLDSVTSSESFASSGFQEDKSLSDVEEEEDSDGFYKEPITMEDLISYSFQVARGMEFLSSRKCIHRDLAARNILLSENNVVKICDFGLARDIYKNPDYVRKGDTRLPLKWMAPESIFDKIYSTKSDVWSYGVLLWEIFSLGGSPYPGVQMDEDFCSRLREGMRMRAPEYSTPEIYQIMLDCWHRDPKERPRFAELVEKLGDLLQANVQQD

c-Raf-1 = target: T7, c-Raf-1 (Homo sapiens, UniProt P04049); experiment: AlphaScreen kinase assay, c-Raf-1; conditions: read-out: IC50, activity toward kinase c-Raf-1
T7 construct: purchased Upstate Biotechnology
Description: AlphaScreen assay was used to screen additional kinases. The assay is similarly dependent on the phosphorylation of a peptide substrate. In this assay, an antibody that recognizes phosphorylated substrate is bound to an acceptor bead. The peptide substrate is attached to biotin, which binds to a donor head that contains streptavidin. Thus phosphorylated substrate is bound by antibody and streptavidin, bringing the donor and acceptor heads into close proximity when kinase is not inhibited. The donor produces singlet oxygen which results in emission from the acceptor when they are in close proximity. Conversely, when kinase is inhibited, the donor and acceptor beads are not associated and the emission from the acceptor is reduced.
AlphaScreen assays were done using compounds dissolved in DMSO to a concentration of 20 mM. The compounds were diluted accordingly to the desired final concentrations in each sample well, using 1:3 serial dilution for a total of 8 concentration points. Plates were prepared such that each kinase reaction is 20 μl in 1× kinase buffer, 5% DMSO and 10 μM ATP. After incubation of the kinase reaction for 1 hour at room temperature, 5 μl of donor beads in stop buffer (50 mM EDTA in 1× kinase buffer) was added, the sample was mixed and incubated for 20 minutes at room temperature before adding 5 μl of acceptor beads in stop buffer. The samples were incubated for 60 minutes at room temperature and the signal per well was read on AlphaQuest reader.

Ret = target: T8, Ret (Homo sapiens, UniProt P07949); experiment: AlphaScreen kinase assay, Ret; conditions: read-out: IC50, activity toward kinase Ret
T8 construct: P1378.pET-SF BI-PTP RET H661-R1012 HIS; made in house
T8 sequence (P07949 with tags, fused parts or gaps): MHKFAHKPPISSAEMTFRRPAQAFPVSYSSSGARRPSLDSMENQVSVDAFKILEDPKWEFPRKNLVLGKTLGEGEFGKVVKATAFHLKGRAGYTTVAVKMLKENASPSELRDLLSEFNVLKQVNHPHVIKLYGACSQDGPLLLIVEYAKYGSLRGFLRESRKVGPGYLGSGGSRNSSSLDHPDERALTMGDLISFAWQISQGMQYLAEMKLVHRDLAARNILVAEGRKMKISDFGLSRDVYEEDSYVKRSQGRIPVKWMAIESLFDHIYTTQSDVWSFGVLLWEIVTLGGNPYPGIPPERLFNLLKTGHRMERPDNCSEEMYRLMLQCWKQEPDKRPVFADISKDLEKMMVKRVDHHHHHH

Fms = target: T9, Fms (Homo sapiens, UniProt P07333); experiment: AlphaScreen kinase assay, Fms; conditions: read-out: IC50, activity toward kinase Fms
T9 construct: purchased Upstate Biotechnology

Measured: IC50

T4 sequence (P10721 with tags, fused parts or gaps): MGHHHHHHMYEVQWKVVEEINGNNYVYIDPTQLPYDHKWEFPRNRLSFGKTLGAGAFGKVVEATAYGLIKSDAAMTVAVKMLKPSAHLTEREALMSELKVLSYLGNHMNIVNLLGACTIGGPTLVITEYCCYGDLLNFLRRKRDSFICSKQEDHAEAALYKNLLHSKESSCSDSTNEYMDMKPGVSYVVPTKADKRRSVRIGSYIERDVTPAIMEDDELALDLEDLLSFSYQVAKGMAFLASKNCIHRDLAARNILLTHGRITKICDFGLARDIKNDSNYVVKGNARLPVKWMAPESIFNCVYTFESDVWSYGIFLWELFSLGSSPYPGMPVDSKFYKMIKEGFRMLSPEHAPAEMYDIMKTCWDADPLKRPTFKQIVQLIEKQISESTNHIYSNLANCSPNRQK
T2 sequence (P15056 with tags, fused parts or gaps V600E): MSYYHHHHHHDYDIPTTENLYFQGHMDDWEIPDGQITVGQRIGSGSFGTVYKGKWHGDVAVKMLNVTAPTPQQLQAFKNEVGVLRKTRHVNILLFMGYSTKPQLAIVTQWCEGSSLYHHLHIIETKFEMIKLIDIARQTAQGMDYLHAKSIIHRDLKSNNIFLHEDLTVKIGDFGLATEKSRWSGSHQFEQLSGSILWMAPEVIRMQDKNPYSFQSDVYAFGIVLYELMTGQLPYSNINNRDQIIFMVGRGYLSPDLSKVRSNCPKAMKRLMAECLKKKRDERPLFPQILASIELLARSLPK
T9 sequence (P07333 20-972): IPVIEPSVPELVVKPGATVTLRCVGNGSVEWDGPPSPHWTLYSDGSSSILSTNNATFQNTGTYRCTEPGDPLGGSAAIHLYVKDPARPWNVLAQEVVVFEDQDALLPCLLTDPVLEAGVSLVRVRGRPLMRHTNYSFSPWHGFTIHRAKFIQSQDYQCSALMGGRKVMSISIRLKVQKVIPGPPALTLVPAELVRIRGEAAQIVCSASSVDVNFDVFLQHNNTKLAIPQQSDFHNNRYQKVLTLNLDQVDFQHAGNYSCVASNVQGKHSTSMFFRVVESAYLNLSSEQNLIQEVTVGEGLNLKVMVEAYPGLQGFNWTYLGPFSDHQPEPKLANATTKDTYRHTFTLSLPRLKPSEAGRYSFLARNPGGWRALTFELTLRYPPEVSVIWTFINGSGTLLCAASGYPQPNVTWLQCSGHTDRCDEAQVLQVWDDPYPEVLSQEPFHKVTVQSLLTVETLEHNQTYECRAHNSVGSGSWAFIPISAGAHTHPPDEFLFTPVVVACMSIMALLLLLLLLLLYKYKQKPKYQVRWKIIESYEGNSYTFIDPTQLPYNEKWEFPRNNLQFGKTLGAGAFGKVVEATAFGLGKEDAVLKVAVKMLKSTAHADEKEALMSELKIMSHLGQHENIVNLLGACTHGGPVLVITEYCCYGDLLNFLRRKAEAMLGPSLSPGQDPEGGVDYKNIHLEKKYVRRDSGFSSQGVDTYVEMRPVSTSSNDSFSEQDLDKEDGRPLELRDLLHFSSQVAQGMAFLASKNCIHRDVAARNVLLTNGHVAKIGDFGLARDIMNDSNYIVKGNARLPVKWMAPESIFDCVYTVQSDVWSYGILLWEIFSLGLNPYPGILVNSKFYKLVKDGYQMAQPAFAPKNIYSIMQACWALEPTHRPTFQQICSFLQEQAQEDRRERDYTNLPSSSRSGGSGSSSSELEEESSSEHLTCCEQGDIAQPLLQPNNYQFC
T1 sequence (P35968 20-1356): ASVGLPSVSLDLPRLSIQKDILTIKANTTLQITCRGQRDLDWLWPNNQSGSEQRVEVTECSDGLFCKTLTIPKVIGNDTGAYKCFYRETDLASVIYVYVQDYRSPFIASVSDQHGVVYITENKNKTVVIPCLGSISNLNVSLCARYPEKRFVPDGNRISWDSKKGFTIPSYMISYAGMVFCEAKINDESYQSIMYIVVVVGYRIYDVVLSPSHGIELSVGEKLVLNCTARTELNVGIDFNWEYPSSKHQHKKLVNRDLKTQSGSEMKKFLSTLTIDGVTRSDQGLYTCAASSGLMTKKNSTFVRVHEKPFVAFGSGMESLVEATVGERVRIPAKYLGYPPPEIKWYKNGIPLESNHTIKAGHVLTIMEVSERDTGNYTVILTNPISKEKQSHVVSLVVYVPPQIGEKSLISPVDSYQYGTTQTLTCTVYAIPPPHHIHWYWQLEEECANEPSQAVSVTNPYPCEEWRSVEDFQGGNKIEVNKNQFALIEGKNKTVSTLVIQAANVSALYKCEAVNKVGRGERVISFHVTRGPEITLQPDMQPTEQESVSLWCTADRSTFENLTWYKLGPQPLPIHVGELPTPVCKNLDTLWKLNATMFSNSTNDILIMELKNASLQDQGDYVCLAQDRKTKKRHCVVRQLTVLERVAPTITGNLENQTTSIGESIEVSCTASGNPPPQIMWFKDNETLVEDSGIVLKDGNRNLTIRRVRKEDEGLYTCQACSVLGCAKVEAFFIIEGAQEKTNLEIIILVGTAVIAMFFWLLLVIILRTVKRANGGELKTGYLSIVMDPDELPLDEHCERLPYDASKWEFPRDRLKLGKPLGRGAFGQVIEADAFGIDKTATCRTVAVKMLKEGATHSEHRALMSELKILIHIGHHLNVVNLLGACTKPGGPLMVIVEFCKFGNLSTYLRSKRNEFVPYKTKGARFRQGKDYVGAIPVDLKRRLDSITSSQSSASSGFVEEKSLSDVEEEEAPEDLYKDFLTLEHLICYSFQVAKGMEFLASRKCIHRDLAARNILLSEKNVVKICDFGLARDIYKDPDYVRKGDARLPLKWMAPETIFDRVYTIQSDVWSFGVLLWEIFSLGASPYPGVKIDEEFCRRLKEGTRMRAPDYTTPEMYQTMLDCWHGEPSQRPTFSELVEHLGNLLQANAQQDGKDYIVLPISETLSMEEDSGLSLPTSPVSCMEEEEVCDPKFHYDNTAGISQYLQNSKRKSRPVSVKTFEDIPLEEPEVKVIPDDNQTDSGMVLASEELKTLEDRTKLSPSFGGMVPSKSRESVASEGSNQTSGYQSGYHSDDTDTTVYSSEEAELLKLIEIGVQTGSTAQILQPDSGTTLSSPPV
T3 sequence (P11362 458-765 C488A/C584S): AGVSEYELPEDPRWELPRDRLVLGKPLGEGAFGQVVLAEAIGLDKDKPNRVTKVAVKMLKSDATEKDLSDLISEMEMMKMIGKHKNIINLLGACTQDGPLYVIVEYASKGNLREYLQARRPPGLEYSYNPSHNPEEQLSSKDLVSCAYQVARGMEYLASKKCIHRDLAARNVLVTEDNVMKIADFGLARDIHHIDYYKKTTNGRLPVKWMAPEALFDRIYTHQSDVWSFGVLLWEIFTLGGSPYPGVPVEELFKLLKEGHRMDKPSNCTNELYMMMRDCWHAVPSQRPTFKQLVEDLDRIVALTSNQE
T5 sequence (P15056 whole entry): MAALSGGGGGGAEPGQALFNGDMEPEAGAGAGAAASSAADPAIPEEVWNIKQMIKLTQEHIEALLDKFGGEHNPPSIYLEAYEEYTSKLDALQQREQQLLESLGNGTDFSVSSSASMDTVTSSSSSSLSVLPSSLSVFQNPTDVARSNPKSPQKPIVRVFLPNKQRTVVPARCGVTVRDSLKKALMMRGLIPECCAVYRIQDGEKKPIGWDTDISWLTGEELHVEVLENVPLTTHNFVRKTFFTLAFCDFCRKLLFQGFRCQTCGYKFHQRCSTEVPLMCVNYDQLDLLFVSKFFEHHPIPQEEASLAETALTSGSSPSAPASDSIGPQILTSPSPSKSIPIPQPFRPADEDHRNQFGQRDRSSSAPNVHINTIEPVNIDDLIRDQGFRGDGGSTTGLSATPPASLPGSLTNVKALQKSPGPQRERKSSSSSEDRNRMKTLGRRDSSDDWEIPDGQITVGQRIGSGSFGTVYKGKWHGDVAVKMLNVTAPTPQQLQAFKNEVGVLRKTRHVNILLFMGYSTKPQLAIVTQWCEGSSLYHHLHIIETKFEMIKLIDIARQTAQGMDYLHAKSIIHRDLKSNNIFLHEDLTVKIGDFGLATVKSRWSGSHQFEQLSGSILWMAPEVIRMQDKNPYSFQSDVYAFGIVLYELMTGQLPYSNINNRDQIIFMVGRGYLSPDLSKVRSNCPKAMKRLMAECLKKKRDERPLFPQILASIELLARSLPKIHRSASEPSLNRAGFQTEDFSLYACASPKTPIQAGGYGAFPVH
T7 sequence (P04049 whole entry): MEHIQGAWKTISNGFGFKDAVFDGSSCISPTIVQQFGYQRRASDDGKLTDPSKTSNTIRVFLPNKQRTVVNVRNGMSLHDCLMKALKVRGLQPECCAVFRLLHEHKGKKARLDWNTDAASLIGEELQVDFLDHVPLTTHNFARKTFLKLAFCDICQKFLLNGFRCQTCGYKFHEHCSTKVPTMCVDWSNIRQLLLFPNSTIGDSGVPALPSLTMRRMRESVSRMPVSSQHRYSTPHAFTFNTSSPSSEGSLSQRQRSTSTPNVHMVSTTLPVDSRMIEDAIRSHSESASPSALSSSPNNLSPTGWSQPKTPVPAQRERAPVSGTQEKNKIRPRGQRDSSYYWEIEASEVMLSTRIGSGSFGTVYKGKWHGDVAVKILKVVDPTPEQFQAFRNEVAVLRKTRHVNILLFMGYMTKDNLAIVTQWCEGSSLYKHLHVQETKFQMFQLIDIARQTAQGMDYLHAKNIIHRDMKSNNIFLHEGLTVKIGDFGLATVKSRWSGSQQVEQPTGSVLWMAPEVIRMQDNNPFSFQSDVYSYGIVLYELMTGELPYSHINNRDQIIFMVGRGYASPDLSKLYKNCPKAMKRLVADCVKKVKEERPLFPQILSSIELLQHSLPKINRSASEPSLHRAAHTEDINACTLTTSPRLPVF

Brc1ccnc2[nH]ccc12 [Compound P-0458]
≤ 10 µM: Kdr

O=C(c1cc([N+](=O)[O-])ccc1F)c1c[nH]c2ncccc12 [Compound P-0243]
≤ 10 µM: B-Raf V600E | Kdr

COc1cc(OC)cc(C(=O)c2c[nH]c3ncccc23)c1 [Compound P-0473]
≤ 10 µM: FGFR1 | Kit | Kdr

COc1cccc(C(O)c2c[nH]c3ncc(Br)cc23)c1F (stereo not shown) [Compound P-0242]
≤ 10 µM: B-Raf V600E | FGFR1 | Kdr

O=C(c1cccc(Cl)c1F)c1c[nH]c2ncc(Br)cc12 [Compound P-0299, (5-Bromo-1H-pyrrolo[2,3-b]pyridin-3-yl)-(3-chloro-2-fluoro-phenyl)-methanone]
≤ 10 µM: Kdr

Cc1ccccc1-c1c[nH]c2ncccc12 [Compound P-0482]
≤ 10 µM: Kdr

CS(=O)(=O)Nc1ccc(Cl)c(C(=O)c2c[nH]c3ncc(Br)cc23)c1F [Compound P-0868, N-[3-(5-Bromo-1H-pyrrolo[2,3-b]pyridine-3-carbonyl)-4-chloro-2-fluoro-phenyl]-methanesulfonamide]
≤ 10 µM: B-Raf | Flt1 | c-Raf-1 | B-Raf V600E | FGFR1

COc1cccc(Cc2c[nH]c3nccc(Br)c23)n1 [Compound P-0339]
≤ 10 µM: Ret | FGFR1 | Kdr

Fc1ccc(NCc2c[nH]c3ncccc23)cc1 [Compound P-0144]
≤ 10 µM: Kdr

O=[N+]([O-])c1cccc(-c2ccnc3[nH]ccc23)c1 [Compound P-0197]
≤ 10 µM: Kdr

c1coc(-c2c[nH]c3ncccc23)c1 [Compound P-0455]
≤ 10 µM: Flt1 | Kdr

COC(c1ccc(NCc2ccc(Cl)cc2)nc1)c1c[nH]c2ncc(-c3cccnc3)cc12 (stereo not shown) [Compound P-0939]
≤ 10 µM: B-Raf | Ret | c-Raf-1 | B-Raf V600E

COc1ccc(Cc2c[nH]c3nccc(-c4ccsc4)c23)cn1 [Compound P-0289]
≤ 10 µM: Ret | FGFR1 | Kdr

Oc1ccccc1-c1c[nH]c2ncccc12 [Compound P-0182]
≤ 10 µM: Kdr

Clc1cccc(-c2ccnc3[nH]ccc23)c1 [Compound P-0427]
≤ 10 µM: Kit | Kdr

CCc1cnc2[nH]cc(C(=O)c3cccc(OC)c3)c2c1 [Compound P-0267]
≤ 10 µM: FGFR1 | Kdr

COc1cnc2[nH]cc(C(=O)c3c(F)ccc(NS(=O)(=O)c4ccc(C(F)(F)F)cc4)c3F)c2c1 [Compound P-1542, N-[2,4-Difluoro-3-(5-methoxy-1H-pyrrolo[2,3-b]pyridine-3-carbonyl)-phenyl]-4-trifluoromethyl-benzenesulfonamide]
not listed: Kdr | Ret
≤ 10 µM: all other assays above

Cc1cc(C(=O)c2c[nH]c3ncc(-c4cccc(N)c4)cc23)no1 [Compound P-0796]
≤ 10 µM: Ret | Kit | Kdr

O=C(c1c(F)ccc(NS(=O)(=O)c2cccc(F)c2)c1F)c1c[nH]c2ncc(Cl)cc12 [Compound P-1583, N-[3-(5-Chloro-1H-pyrrolo[2,3-b]pyridine-3-carbonyl)-2,4-difluoro-phenyl]-3-fluoro-benzenesulfonamide]
not listed: Kdr | Ret
≤ 10 µM: all other assays above

Cc1cc(C(=O)c2c[nH]c3nccc(-c4cccc(NS(C)(=O)=O)c4)c23)n(C)n1 [Compound P-0234]
≤ 10 µM: Kdr

O=[N+]([O-])c1cc(S(=O)(=O)NCc2c[nH]c3ncccc23)sc1Cl [Compound P-0777]
≤ 10 µM: Flt1 | B-Raf V600E | Kdr

COc1ccc(CNc2ccc(Cc3c[nH]c4ncccc34)cn2)cc1 [Compound P-0274]
≤ 10 µM: Flt1 | Fms | B-Raf V600E | FGFR1 | Kdr

CC(C)Cc1nc(-c2ccnc3[nH]ccc23)no1 [Compound P-0288]
≤ 10 µM: Kdr

O=C(c1c(F)ccc(NS(=O)(=O)c2ccc(C(F)(F)F)cc2)c1F)c1c[nH]c2ncc(Cl)cc12 [Compound P-1541, N-[3-(5-Chloro-1H-pyrrolo[2,3-b]pyridine-3-carbonyl)-2,4-difluoro-phenyl]-4-trifluoromethyl-benzenesulfonamide]
not listed: Kdr | FGFR1 | Ret
≤ 10 µM: all other assays above

COC(c1ccc(NCc2ccc(Cl)cc2)nc1)c1c[nH]c2ncc(-c3cccc(S(C)(=O)=O)c3)cc12 (stereo not shown) [Compound P-0998]
≤ 10 µM: B-Raf | Ret | c-Raf-1 | B-Raf V600E

c1cc2cc(Nc3ccc(N4CCOCC4)cc3)cnc2[nH]1 [Compound P-0981]
≤ 10 µM: B-Raf V600E | Kdr

COc1cnc2[nH]cc(C(=O)c3c(F)ccc(NS(=O)(=O)c4cccc(F)c4)c3F)c2c1 [Compound P-1581, N-[2,4-Difluoro-3-(5-methoxy-1H-pyrrolo[2,3-b]pyridine-3-carbonyl)-phenyl]-3-fluoro-benzenesulfonamide]
not listed: Kdr | Ret
≤ 10 µM: all other assays above

CC(C)CNc1ccc(Cc2c[nH]c3ncccc23)cn1 [Compound P-0192]
≤ 10 µM: B-Raf | B-Raf V600E | FGFR1 | Kdr

COc1ccc(C(O)c2c[nH]c3ncccc23)cc1 (stereo not shown) [Compound P-0268]
≤ 10 µM: Kdr

CCCS(=O)(=O)Nc1ccc(F)c(C(=O)c2c[nH]c3ncc(N4CCN(C)CC4)cc23)c1F [Compound P-1246, propane-1-sulfonic acid {2,4-difluoro-3-[5-(4-methyl-piperazin-1-yl)-1H-pyrrolo[2,3-b]pyridine-3-carbonyl]-phenyl}-amide]
not listed: Kdr | Ret
≤ 10 µM: all other assays above

COc1cccc(C(=O)c2c[nH]c3ncccc23)c1 [Compound P-0168]
≤ 10 µM: FGFR1 | Kit | Kdr

CS(=O)(=O)Nc1ccc(Cl)c(C(=O)c2c[nH]c3ncc(-c4cccc(S(C)(=O)=O)c4)cc23)c1F [Compound P-0841, N-{4-Chloro-2-fluoro-3-[5-(3-methanesulfonyl-phenyl)-1H-pyrrolo[2,3-b]pyridine-3-carbonyl]-phenyl}-methanesulfonamide]
≤ 10 µM: B-Raf | Ret | c-Raf-1 | B-Raf V600E | FGFR1

O=C(c1c(Cl)ccc(OCC(F)(F)F)c1F)c1c[nH]c2ncc(-c3cccnc3)cc12 [Compound P-1395, [6-Chloro-2-fluoro-3-(2,2,2-trifluoro-ethoxy)-phenyl]-(5-pyridin-3-yl-1H-pyrrolo[2,3-b]pyridin-3-yl)-methanone]
not listed: Kdr | Ret
≤ 10 µM: all other assays above

c1cc(Cc2c[nH]c3ncccc23)cc(OCCOC2CCCCO2)c1 (stereo not shown) [Compound P-0326]
≤ 10 µM: Flt1 | FGFR1 | Kit | Kdr
